Measured values: US11345712B2, “Protein-targeting compounds and pharmaceutical compositions thereof, and their therapeutic applications” (BioTheryX, Inc., priority 2019, dated 2022)

Assays:
[1] = target: T1, IKAROS (Homo sapiens, UniProt Q13422+Q96SW2); assay: Protein degradation assay (Western blot) in MV-4-11 cells: IKAROS; format: cell-based; settings: 6-8 h, compound concentration 0.1 μM
T1 construct: Whole cell extracts were prepared using a radioimmunoprecipitation assay (RIPA) buffer; endogenous in cells; host or cells: MV-4-11
T1 sequence (Q13422 whole entry): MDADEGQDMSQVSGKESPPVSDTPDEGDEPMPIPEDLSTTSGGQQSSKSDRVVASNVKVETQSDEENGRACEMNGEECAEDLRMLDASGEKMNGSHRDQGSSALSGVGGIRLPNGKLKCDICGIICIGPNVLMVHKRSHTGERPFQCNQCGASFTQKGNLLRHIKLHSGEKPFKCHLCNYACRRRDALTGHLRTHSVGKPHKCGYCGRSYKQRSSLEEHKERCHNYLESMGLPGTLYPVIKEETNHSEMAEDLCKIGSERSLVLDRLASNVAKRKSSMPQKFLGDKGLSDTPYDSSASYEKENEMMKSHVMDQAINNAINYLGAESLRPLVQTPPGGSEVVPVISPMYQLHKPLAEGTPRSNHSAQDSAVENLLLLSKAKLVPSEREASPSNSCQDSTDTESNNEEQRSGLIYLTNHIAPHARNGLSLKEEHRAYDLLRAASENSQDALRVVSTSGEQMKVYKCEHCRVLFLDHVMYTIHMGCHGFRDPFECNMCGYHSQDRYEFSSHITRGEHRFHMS
T1 sequence (Q96SW2 whole entry): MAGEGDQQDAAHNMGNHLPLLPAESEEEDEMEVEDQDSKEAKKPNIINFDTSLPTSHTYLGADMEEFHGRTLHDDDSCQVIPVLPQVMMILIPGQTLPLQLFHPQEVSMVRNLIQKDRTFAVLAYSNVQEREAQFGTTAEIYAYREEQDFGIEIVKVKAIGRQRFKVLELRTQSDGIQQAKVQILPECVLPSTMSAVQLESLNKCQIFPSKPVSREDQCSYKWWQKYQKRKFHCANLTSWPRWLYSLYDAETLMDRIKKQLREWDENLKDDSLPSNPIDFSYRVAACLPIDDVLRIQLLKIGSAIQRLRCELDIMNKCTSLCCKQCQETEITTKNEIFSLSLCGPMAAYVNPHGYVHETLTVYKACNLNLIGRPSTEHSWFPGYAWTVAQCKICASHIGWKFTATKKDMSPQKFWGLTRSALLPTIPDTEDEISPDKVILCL
T1 sequence (Q16531 whole entry partner): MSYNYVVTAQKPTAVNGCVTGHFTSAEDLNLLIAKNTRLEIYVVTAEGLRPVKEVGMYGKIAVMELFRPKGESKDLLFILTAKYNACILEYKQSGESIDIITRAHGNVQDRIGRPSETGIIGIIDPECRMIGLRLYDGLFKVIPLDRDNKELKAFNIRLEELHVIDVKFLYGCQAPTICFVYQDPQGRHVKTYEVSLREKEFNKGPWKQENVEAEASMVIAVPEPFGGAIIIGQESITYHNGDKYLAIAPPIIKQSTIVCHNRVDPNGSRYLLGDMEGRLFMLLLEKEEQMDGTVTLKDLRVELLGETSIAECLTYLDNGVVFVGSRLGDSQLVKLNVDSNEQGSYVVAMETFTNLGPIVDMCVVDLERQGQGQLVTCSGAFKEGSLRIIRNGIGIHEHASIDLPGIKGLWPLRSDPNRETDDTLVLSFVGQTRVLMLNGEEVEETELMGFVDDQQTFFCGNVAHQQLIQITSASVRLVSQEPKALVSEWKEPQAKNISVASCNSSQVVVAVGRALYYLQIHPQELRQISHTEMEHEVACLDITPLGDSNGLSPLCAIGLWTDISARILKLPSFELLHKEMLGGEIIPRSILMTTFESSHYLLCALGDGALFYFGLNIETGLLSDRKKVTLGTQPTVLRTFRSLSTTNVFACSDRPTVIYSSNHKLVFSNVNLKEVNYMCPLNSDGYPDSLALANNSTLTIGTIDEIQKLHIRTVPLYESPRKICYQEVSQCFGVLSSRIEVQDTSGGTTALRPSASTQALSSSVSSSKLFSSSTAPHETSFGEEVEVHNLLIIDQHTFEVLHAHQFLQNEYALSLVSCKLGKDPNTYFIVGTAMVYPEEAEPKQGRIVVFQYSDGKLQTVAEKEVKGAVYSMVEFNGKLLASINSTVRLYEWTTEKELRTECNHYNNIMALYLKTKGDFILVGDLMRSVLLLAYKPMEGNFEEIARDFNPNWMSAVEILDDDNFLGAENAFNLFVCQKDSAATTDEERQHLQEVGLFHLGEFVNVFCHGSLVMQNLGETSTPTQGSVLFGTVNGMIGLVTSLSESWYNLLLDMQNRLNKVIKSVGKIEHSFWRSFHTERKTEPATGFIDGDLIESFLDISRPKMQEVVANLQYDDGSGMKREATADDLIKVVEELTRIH
Protocol: (§1) MV-4-11 cells were grown in RPMI 1640 media supplemented with 10% fetal bovine serum, streptomycin, and penicillin. The cells were cultured at approximately 10^6 cells per mL and incubated in DMSO or a compound for 6-8 h. Whole cell extracts were prepared using a radioimmunoprecipitation assay (RIPA) buffer. Briefly, 3×10^6 cells were washed once in PBS, and the cell pellets were resuspended in the RIPA buffer and incubated for 15 min on ice. Cells debris was removed by centrifugation and the cleared whole cell lysates were transferred to new tubes for further analysis.
(§2) For Western blot analysis, whole cell protein extracts were separated on 4-12% SDS-polyacrylamide gels, transferred to nitrocellulose, and probed with primary antibodies. Membranes were subsequently washed and probed with IRDYE® secondary antibodies. The signal was detected using an ODYSSEY® Imaging System.
(§3) The following antibodies were used in the assays described herein: anti-eRF3/GSPT1: Abcam, ab126090 (Cambridge, Mass.); anti-Ikaros: Abcam, ab191394 (Cambridge, Mass.); anti-CK1α: Abcam, ab108296 (Cambridge, Mass.); β-actin (8H10D10) mouse monoclonal antibody: Cell Signaling Technology, #3700 (Danvers, Mass.); IRDYE® 680RD goat anti-rabbit antibody: LI-COR, 926-68071 (Lincoln, Nebr.); and IRDYE® 800CW goat anti-mouse antibody: LI-COR, 926-32210 (Lincoln, Nebr.).
(§4) The protein degradation results are summarized in Table 1, wherein A represents a value no less than 80%, B represents a value less than 80% but no less than 50%, C represents a value less than 50% but no less than 25%, and D represents a value less than 25% protein degradation at a compound concentration of 0.1 μM.

[2] = target: T2, CK1α (Homo sapiens, UniProt P48729+Q96SW2); assay: Protein degradation assay (Western blot) in MV-4-11 cells: CK1α; format: cell-based; settings: 6-8 h, compound concentration 0.1 μM
T2 construct: Whole cell extracts were prepared using a radioimmunoprecipitation assay (RIPA) buffer; endogenous in cells; host or cells: MV-4-11
T2 sequence (P48729 whole entry): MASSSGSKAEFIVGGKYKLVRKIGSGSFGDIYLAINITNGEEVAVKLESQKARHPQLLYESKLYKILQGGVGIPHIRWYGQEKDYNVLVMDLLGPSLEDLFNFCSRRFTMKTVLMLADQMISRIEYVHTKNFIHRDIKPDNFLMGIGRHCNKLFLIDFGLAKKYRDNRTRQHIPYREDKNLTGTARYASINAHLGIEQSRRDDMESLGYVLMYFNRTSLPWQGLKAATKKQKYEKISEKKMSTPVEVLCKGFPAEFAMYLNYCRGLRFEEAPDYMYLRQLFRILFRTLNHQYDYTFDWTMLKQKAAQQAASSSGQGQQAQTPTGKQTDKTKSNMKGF
T2 sequence (Q96SW2 whole entry): as the sequence (Q96SW2 whole entry) above
T2 sequence (Q16531 whole entry partner): as the sequence (Q16531 whole entry partner) above
Protocol: as §1, §2, §3, §4

[3] = system: IL-1β; assay: Cytokine modulation assay, LPS-induced PBMCs or CD14+ monocytes: IL-1β; format: cell-based; settings: 100 ng/mL LPS 18-24 h; for inhibition at 0.1 µM: 0.1 μM compound
Protocol: (§5) Frozen primary blood mononuclear cells (PBMCs) or frozen CD14+ mobilized peripheral blood monocytes were quick thawed, washed once with RPMI-1640 (10% FBS/1% Pen-Strep), and plated in 96 well plates at 200,000 cells per well. The cells were pretreated with DMSO only or with a compound for 1 h and then induced with 100 ng/mL lipopolysaccharide (LPS) for 18-24 h. The supernatant was analyzed for IL-1β, IL-6, and TNFα using Meso Scale assays. The negative control wells were treated with DMSO.

[4] = system: IL-6; assay: Cytokine modulation assay, LPS-induced PBMCs or CD14+ monocytes: IL-6; format: cell-based; settings: 0.1 μM compound, 100 ng/mL LPS 18-24 h
Protocol: as §5

[5] = system: MOLM-13 cells; assay: MOLM-13 cell viability assay (CellTiter-Glo); format: cell-based; settings: 3 days, concentration of 1 μM
Outline: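 MOLM-13 AML cells in RPMI 1640 with 10% FBS, seeded at 2,500 cells/well and exposed to compound or DMSO for 3 days at 37° C, 5% CO2. Viability read as CellTiter-Glo luminescence after 10 min shaking.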

[6] = target: T3, GSPT1 (Homo sapiens, UniProt P15170+Q96SW2); assay: Protein degradation assay (Western blot) in MV-4-11 cells: GSPT1; format: cell-based; settings: 6-8 h, compound concentration 0.1 μM
T3 construct: Whole cell extracts were prepared using a radioimmunoprecipitation assay (RIPA) buffer; endogenous in cells; host or cells: MV-4-11
T3 sequence (P15170 whole entry): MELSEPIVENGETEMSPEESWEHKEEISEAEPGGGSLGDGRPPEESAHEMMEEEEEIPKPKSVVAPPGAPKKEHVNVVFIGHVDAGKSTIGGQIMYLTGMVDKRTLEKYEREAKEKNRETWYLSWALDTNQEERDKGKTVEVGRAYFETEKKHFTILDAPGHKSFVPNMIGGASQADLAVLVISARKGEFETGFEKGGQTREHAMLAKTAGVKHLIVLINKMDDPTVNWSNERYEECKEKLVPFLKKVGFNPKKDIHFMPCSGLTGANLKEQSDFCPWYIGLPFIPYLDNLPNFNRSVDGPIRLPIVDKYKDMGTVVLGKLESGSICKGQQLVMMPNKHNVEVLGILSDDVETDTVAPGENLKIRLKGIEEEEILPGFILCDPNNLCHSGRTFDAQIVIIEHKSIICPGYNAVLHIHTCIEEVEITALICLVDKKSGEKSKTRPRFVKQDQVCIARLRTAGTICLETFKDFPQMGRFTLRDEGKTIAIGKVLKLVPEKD
T3 sequence (Q96SW2 whole entry): as the sequence (Q96SW2 whole entry) above
T3 sequence (Q16531 whole entry partner): as the sequence (Q16531 whole entry partner) above
Protocol: as §1, §2, §3, §4

[7] = system: TNF-α; assay: Cytokine modulation assay, LPS-induced PBMCs or CD14+ monocytes: TNFα; format: cell-based; settings: 100 ng/mL LPS 18-24 h; for inhibition at 0.1 µM: 0.1 μM compound
Protocol: as §5

[8] = system: IL-2; assay: IL-2 analysis in anti-CD3 stimulated PBMCs; format: cell-based, human; settings: 0.01 μM compound, PBMCs on anti-CD3 coated plates, 24 h
Protocol: For the IL-2 analysis, 96 well plates were precoated with 1 μg/mL anti-human CD3 antibody (OKT3, eBioscience Inc., San Diego, Calif.). After washed with PBS, the compound was added (50 μL/well), followed by addition of PBMCs diluted at 3-4 million cells/mL (150 μL/well). The plates were incubated for 24 h and the supernatants were collected for IL-2 analysis. IL-2 activity was measured as fold difference from the DMSO control. At a concentration of 0.01 μM, compounds I-1 and I-3 stimulated IL-2 production with 3.7 and 3.9 fold change, respectively, over the DMSO control.

Protein Degradation IKAROS [1]	Structure (SMILES)	Protein Degradation CK1α [2]	inhibition at 0.1 µM [3]	inhibition at 1 µM ([3]; 1 μM compound)	inhibition at 0.1 µM [4]	cytotoxicity at 1 µM ([5]; Homo sapiens, MOLM-13, 72 h, read-out: Antiproliferative Activity (inhibition, MOLM-13 cell viability))	Protein Degradation GSPT1 [6]	inhibition at 0.1 µM [7]	inhibition at 1 µM ([7]; 1 μM compound)	IL-2 production, fold change over the DMSO control [8]	Antiproliferative Activity (inhibition, MOLM-13 cell viability) [5]
A (a value no less than 80%)	O=C1CCC(N2Cc3c(csc3CNC(=O)C(=O)c3ccc(C4(C(F)(F)F)CC4)cc3)C2=O)C(=O)N1 (stereo not drawn) [Compound I-3, N-((5-(2,6-dioxopiperidin-3-yl)-4-oxo-5,6-dihydro-4H-thieno[3,4-c]pyrrol-1-yl)methyl)-2-oxo-2-(4-(1-(trifluoromethyl)cyclopropyl)phenyl)acetamide]	A (a value no less than 80%)	> 80%	> 80%	25 to 50%	> 80%	B (a value less than 80% but no less than 50%)	> 80%	> 80%	3.9 fold	–
A (a value no less than 80%)	CC(C)(C)c1ccc(C(=O)C(=O)NCc2scc3c2CN(C2CCC(=O)NC2=O)C3=O)cc1 (stereo not drawn) [Compound I-1, 2-(4-(tert-butyl)phenyl)-N-((5-(2,6-dioxopiperidin-3-yl)-4-oxo-5,6-dihydro-4H-thieno[3,4-c]pyrrol-1-yl)methyl)-2-oxoacetamide]	B (a value less than 80% but no less than 50%)	> 80%	–	50 to 80%	–	B (a value less than 80% but no less than 50%)	> 80%	–	3.7 fold	A (a value no less than 80%)
